Laboratory results from ChEMBL document CHEMBL3797086, “Synthesis and biological evaluation of novel structural hybrids of benzofuroxan derivatives and fluoroquinolones” (Eur J Med Chem, 2016).
Values after ≈ are worked out from the molar mass of the structure shown. One block for each molecule: values may come before it.

Key:
Pseudomonas aeruginosa [1] = assay: microbe, parasite or virus in culture; assay type: functional; conditions: 9027
Escherichia coli [2] = assay: microbe, parasite or virus in culture; assay type: functional; conditions: F-50
Bacillus cereus [3] = assay: microbe, parasite or virus in culture; assay type: functional; conditions: 8035
Staphylococcus aureus [4] = assay: microbe, parasite or virus in culture; assay type: functional; conditions: 209p
Bacillus cereus [5] = assay: microbe, parasite or virus in culture; assay type: functional; conditions: Bacillus cereus, 8035, 4 h
Staphylococcus aureus [6] = assay: microbe, parasite or virus in culture; assay type: functional; conditions: 209p, 4 h
Escherichia coli [7] = assay: microbe, parasite or virus in culture; assay type: functional; conditions: F-50, 4 h
Pseudomonas aeruginosa [8] = assay: microbe, parasite or virus in culture; assay type: functional; conditions: Pseudomonas aeruginosa, 9027, 4 h
Bacillus cereus [9] = assay: Potency index, ratio of lomefloxacin MBC to compound MBC for Bacillus cereus 8035; assay type: functional
in vitro = conditions: human
[10] = red blood cells (RBC), at 0.19 to 3.9 µg/mL

Compound: CCn1cc(C(=O)O)c(=O)c2cc(F)c(N3CCNC(C)C3)c(F)c21.O=[N+]([O-])c1c(Cl)cc2c(no[n+]2[O-])c1O (stereo not drawn)
MIC (Pseudomonas aeruginosa [1]): 6.3 µg/mL | MIC (Escherichia coli [2]): 3.1 µg/mL | MIC (Bacillus cereus [3]): 0.97 µg/mL | MIC (Staphylococcus aureus [4]): 0.97 µg/mL | MBC (Bacillus cereus [5]): 1.5 µg/mL | MBC (Staphylococcus aureus [6]): 1.9 µg/mL | MBC (Escherichia coli [7]): 12.5 µg/mL | MBC (Pseudomonas aeruginosa [8]): 12.5 µg/mL | Ratio (Bacillus cereus [9]): 8 | hemolysis at 1 h (in vitro; [10]): ≤ 1%

Compound: CC1CN(c2c(F)c(N)c3c(=O)c(C(=O)O)cn(C4CC4)c3c2F)CC(C)N1.O=[N+]([O-])c1c(Cl)cc2c(no[n+]2[O-])c1O (stereo not drawn)
MIC (Pseudomonas aeruginosa [1]): 3.1 µg/mL | MIC (Escherichia coli [2]): 1.5 µg/mL | MIC (Bacillus cereus [3]): 0.19 µg/mL | MIC (Staphylococcus aureus [4]): 0.39 µg/mL | MBC (Bacillus cereus [5]): 1.5 µg/mL | MBC (Staphylococcus aureus [6]): 0.39 µg/mL | MBC (Escherichia coli [7]): 1.5 µg/mL | MBC (Pseudomonas aeruginosa [8]): 6.3 µg/mL | hemolysis at 1 h (in vitro; [10]): ≤ 1%

Compound: O=C(O)c1cn(C2CC2)c2cc(N3CCNCC3)c(F)cc2c1=O.O=[N+]([O-])c1c(Cl)cc2c(no[n+]2[O-])c1O
MIC (Pseudomonas aeruginosa [1]): 15.6 µg/mL | MIC (Bacillus cereus [3]): 7.8 µg/mL | MIC (Staphylococcus aureus [4]): 3.9 µg/mL | MBC (Bacillus cereus [5]): 62.5 µg/mL | MBC (Staphylococcus aureus [6]): 7.8 µg/mL | MBC (Pseudomonas aeruginosa [8]): 31.3 µg/mL

Compound: CCn1cc(C(=O)O)c(=O)c2cc(F)c(N3CCNCC3)cc21.O=[N+]([O-])c1c(Cl)cc2c(no[n+]2[O-])c1O
MIC (Pseudomonas aeruginosa [1]): 31.3 µg/mL | MIC (Bacillus cereus [3]): 7.8 µg/mL | MIC (Staphylococcus aureus [4]): 7.8 µg/mL | MBC (Bacillus cereus [5]): 15.6 µg/mL | MBC (Staphylococcus aureus [6]): 31.3 µg/mL | MBC (Escherichia coli [7]): > 500 µg/mL | MBC (Pseudomonas aeruginosa [8]): > 500 µg/mL | hemolysis at 1 h (in vitro; [10]): ≤ 1%

Compound: O=C(O)c1cn(C2CC2)c2cc(N3CCNCC3)c(F)cc2c1=O [CIPROFLOXACIN]
MIC (Pseudomonas aeruginosa [1]): 0.39 µg/mL (≈ 1.18 µM) | MIC (Bacillus cereus [3]): 0.39 µg/mL (≈ 1.18 µM) | MIC (Staphylococcus aureus [4]): 0.19 µg/mL (≈ 0.573 µM) | MBC (Bacillus cereus [5]): 6.3 µg/mL (≈ 19 µM) | MBC (Staphylococcus aureus [6]): 1.5 µg/mL (≈ 4.53 µM) | MBC (Escherichia coli [7]): 3.1 µg/mL (≈ 9.36 µM) | MBC (Pseudomonas aeruginosa [8]): 3.1 µg/mL (≈ 9.36 µM) | hemolysis at 1 h (in vitro; erythrocyte): ≤ 1%

Compound: CCn1cc(C(=O)O)c(=O)c2cc(F)c(N3CCNC(C)C3)c(F)c21 (stereo not drawn) [LOMEFLOXACIN]
MIC (Pseudomonas aeruginosa [1]): 6.3 µg/mL (≈ 17.9 µM) | MIC (Escherichia coli [2]): 3.1 µg/mL (≈ 8.82 µM) | MIC (Bacillus cereus [3]): 6.3 µg/mL (≈ 17.9 µM) | MIC (Staphylococcus aureus [4]): 0.78 µg/mL (≈ 2.22 µM) | MBC (Bacillus cereus [5]): 12.5 µg/mL (≈ 35.6 µM) | MBC (Staphylococcus aureus [6]): 3.1 µg/mL (≈ 8.82 µM) | MBC (Escherichia coli [7]): 6.3 µg/mL (≈ 17.9 µM) | MBC (Pseudomonas aeruginosa [8]): 12.5 µg/mL (≈ 35.6 µM) | hemolysis at 1 h (in vitro; [10]): ≤ 1%

Compound: CCn1cc(C(=O)O)c(=O)c2cc(F)c(N3CCNCC3)cc21 [NORFLOXACIN]
MIC (Pseudomonas aeruginosa [1]): 3.1 µg/mL (≈ 9.71 µM) | MIC (Escherichia coli [2]): 0.19 µg/mL (≈ 0.595 µM) | MIC (Bacillus cereus [3]): 1.5 µg/mL (≈ 4.7 µM) | MIC (Staphylococcus aureus [4]): 0.39 µg/mL (≈ 1.22 µM) | MBC (Bacillus cereus [5]): 3.1 µg/mL (≈ 9.71 µM) | MBC (Staphylococcus aureus [6]): 6.3 µg/mL (≈ 19.7 µM) | MBC (Escherichia coli [7]): 3.1 µg/mL (≈ 9.71 µM) | MBC (Pseudomonas aeruginosa [8]): 25 µg/mL (≈ 78.3 µM) | hemolysis at 1 h (in vitro; [10]): ≤ 1%

MIC (Pseudomonas aeruginosa [1]): 0.78 µg/mL (≈ 1.99 µM) | MIC (Escherichia coli [2]): 0.19 µg/mL (≈ 0.484 µM) | MIC (Bacillus cereus [3]): 0.19 µg/mL (≈ 0.484 µM) | MIC (Staphylococcus aureus [4]): 0.19 µg/mL (≈ 0.484 µM)
Compound: C[C@@H]1CN(c2c(F)c(N)c3c(=O)c(C(=O)O)cn(C4CC4)c3c2F)C[C@H](C)N1 [SPARFLOXACIN]
MBC (Bacillus cereus [5]): 3.1 µg/mL (≈ 7.9 µM) | MBC (Staphylococcus aureus [6]): 0.39 µg/mL (≈ 0.994 µM) | MBC (Escherichia coli [7]): 3.1 µg/mL (≈ 7.9 µM) | MBC (Pseudomonas aeruginosa [8]): 3.1 µg/mL (≈ 7.9 µM) | hemolysis at 1 h (in vitro; [10]): ≤ 1%
